Drawing on patent US20220380314A1, “SUBSTITUTED, SATURATED AND UNSATURATED N-HETEROCYCLIC CARBOXAMIDES AND RELATED COMPOUNDS FOR THEIR USE IN THE TREATMENT OF MEDICAL DISORDERS” (Bial - R&D Investments, S.A., priority 2019, published 2022), this text covers solubility and IC50 for 27 compounds.

Molecules are shown by their SMILES. Values after ≈ are worked out from the molar mass of the structure shown.

Data set [1] can be described thus: Compound solubility in water. The class given is physicochemical.
The target of the next data set is T1, acid ceramidase (hACR) (Homo sapiens, UniProt Q13510).
T1 construct: expressed in transfected cells; cell lysate used
T1 sequence (Q13510 143-395 limits assumed): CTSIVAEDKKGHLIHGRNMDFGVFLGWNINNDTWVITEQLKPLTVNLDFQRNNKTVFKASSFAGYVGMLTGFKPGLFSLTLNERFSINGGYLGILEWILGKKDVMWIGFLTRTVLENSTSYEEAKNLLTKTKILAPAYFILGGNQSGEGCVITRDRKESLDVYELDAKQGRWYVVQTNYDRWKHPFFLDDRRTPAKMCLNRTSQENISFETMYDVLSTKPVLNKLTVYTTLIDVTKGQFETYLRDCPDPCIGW
T1 sequence (Q13510 22-142 limits assumed): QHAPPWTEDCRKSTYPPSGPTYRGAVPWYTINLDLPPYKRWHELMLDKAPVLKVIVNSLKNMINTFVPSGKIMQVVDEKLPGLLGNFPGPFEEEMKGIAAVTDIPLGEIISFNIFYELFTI
Put plainly: Acid ceramidase inhibition, biochemical fluorescent assay with cell lysates overexpressing acid ceramidase, substrate Rbm14-12. The following applies: cell lysates overexpressing acid ceramidase; 1 hr preincubation at RT; pH 4.5; substrate Rbm14-12 6.3 μM; read-out: hACR IC50. The method, boiled down:
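Enzyme source was lysate (10 µg protein) from cells overexpressing acid ceramidase, preincubated 1 hr at RT with compound dose series in 25 mM NaAc, 100 mM NaCl, pH 4.5. Rbm14-12 (6.3 μM final) reacted 1 hr at RT; stop buffer (methanol, NaIO4, glycine, pH 10.6) 1 hr, fluorescence ex360/em446; IC50 from four-parameter fit.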

Compound `CC1(C)CCc2ccccc2N1C(=O)NCCc1ccccc1` [Example 6, 2,2-Dimethyl-N-phenethyl-3,4-dihydroquinoline-1(2H)-carboxamide] came in with a solubility in data set [1] of 3.2 µM (≈ 0.987 µg/mL). The concentration for half-maximal inhibition (IC50) at acid ceramidase (hACR) was 200 to 1000 nM.

In turn, `CN1CC(C)(C)N(C(=O)NCCc2ccccc2)c2ccccc21` [Example 7, 2,2,4-Trimethyl-N-phenethyl-3,4-dihydroquinoxaline-1(2H)-carboxamide] displayed a solubility in data set [1] of 6.7 µM (≈ 2.17 µg/mL). Moreover, the concentration for half-maximal inhibition (IC50) on acid ceramidase (hACR) is 200 to 1000 nM.

In turn, `CC1(C)CCc2cccnc2N1C(=O)NCCc1ccccc1` [Example 8, 2,2-Dimethyl-N-phenethyl-3,4-dihydro-1,8-naphthyridine-1(2H)-carboxamide] registered a solubility in data set [1] of 27.4 µM (≈ 8.48 µg/mL). The IC50 at acid ceramidase (hACR) is more than 1000 nM.

On to `CC1(C)CCc2ncccc2N1C(=O)NCCc1ccccc1` [Example 9, 2,2-Dimethyl-N-phenethyl-3,4-dihydro-1,5-naphthyridine-1(2H)-carboxamide], for which the solubility in data set [1] worked out at 25.2 µM (≈ 7.8 µg/mL). The IC50 at acid ceramidase (hACR) is more than 1000 nM.

`CC1(C)CCc2ccc(N3CCOCC3)cc2N1C(=O)NCCc1ccccc1` [Example 10, 2,2-Dimethyl-7-morpholino-N-phenethyl-3,4-dihydroquinoline-1(2H)-carboxamide]: in data set [1], the solubility came out at 6.7 µM (≈ 2.64 µg/mL). For the same compound, the half-maximal inhibitory concentration (IC50) on acid ceramidase (hACR) was more than 1000 nM.

In data set [1], `CC1(C)CCc2c(N3CCOCC3)cccc2N1C(=O)NCCc1ccccc1` [Example 11, 2,2-Dimethyl-5-morpholino-N-phenethyl-3,4-dihydroquinoline-1(2H)-carboxamide] came in with a solubility of 8.1 µM (≈ 3.19 µg/mL). The 50% inhibitory concentration (IC50) on acid ceramidase (hACR) was in the range of 200 to 1000 nM.

In turn, `Cn1ccnc1-c1ccc2c(c1)N(C(=O)NCCc1ccccc1)C(C)(C)CC2` [Example 12, 2,2-Dimethyl-7-(1-methyl-1H-imidazol-2-yl)-N-phenethyl-3,4-dihydroquinoline-1(2H)-carboxamide] gave a solubility in data set [1] of 26.6 µM (≈ 10.3 µg/mL). Besides, on acid ceramidase (hACR), the IC50 is more than 1000 nM.

Turning to `Cn1ccnc1-c1cccc2c1CCC(C)(C)N2C(=O)NCCc1ccccc1` [Example 13, 2,2-Dimethyl-5-(1-methyl-1H-imidazol-2-yl)-N-phenethyl-3,4-dihydroquinoline-1(2H)-carboxamide], the concentration in solution in data set [1] (solubility) came to 33.6 µM (≈ 13.1 µg/mL). For the same compound, the 50% inhibitory concentration (IC50) on acid ceramidase (hACR) is more than 1000 nM.

In turn, `CC1(C)c2ncccc2CCN1C(=O)NCCc1ccccc1` [Example 14, 8,8-Dimethyl-N-phenethyl-5,6-dihydro-1,7-naphthyridine-7(8H)-carboxamide] came in with a solubility in data set [1] of 24 µM (≈ 7.43 µg/mL). In addition, the IC50 on acid ceramidase (hACR) was more than 1000 nM.

In data set [1], `CC1(C)c2ccccc2CCN1C(=O)NCCc1ccccc1` [Example 15, 1,1-Dimethyl-N-phenethyl-3,4-dihydroisoquinoline-2(1H)-carboxamide] showed a solubility of 0.9 µM (≈ 0.278 µg/mL). Moreover, the half-maximal inhibitory concentration (IC50) on acid ceramidase (hACR) was more than 1000 nM.

For the compound `CC1(C)COc2ccccc2N1C(=O)NCCc1ccccc1` [Example 16, 3,3-Dimethyl-N-phenethyl-2H-benzo[b][1,4]oxazine-4(3H)-carboxamide], in data set [1], the concentration in solution (solubility) was 3.1 µM (≈ 0.962 µg/mL). The 50% inhibitory concentration (IC50) at acid ceramidase (hACR) was more than 1000 nM.

`CC1(C)CC2(CCCCO2)CCN1C(=O)NCCc1ccccc1` (stereo not drawn) [Example 17, 8,8-Dimethyl-N-phenethyl-1-oxa-9-azaspiro[5.5]undecane-9-carboxamide]: the solubility in data set [1] came out at 28.5 µM (≈ 9.42 µg/mL). For the same compound, the half-inhibitory concentration (IC50) at acid ceramidase (hACR) was 200 to 1000 nM.

Turning to `CC1(C)CCc2ccccc2N1C(=O)NCCOc1ccccc1` [Example 18, 2,2-Dimethyl-N-(2-phenoxyethyl)-3,4-dihydroquinoline-1(2)-carboxamide], the solubility in data set [1] came out at 1.5 µM (≈ 0.487 µg/mL). In addition, the concentration for half-maximal inhibition (IC50) on acid ceramidase (hACR) lay within 200 to 1000 nM.

In data set [1], `COC1CC(C)(C)N(C(=O)NCCc2ccccc2)c2ccccc21` (stereo not drawn) [Example 19, 4-Methoxy-2,2-dimethyl-N-phenethyl-3,4-dihydroquinoline-1(2)-carboxamide] came in with a solubility of 6.5 µM (≈ 2.2 µg/mL). Further, on acid ceramidase (hACR), the half-maximal inhibitory concentration (IC50) was in the range of 200 to 1000 nM.

`CN1CCC(c2cccc3c2CN(C(=O)NCCc2ccccc2)C(C)(C)C3)CC1` [Example 20, 3,3-Dimethyl-8-(1-methylpiperidin-4-yl)-N-phenethyl-3,4-dihydroisoquinoline-2(1H)-carboxamide]: the concentration in solution in data set [1] (solubility) was 32.2 µM (≈ 13.1 µg/mL). For the same compound, the IC50 on acid ceramidase (hACR) lay within 200 to 1000 nM.

As to `CN1CCC(c2ccc3c(c2)CC(C)(C)N(C(=O)NCCc2ccccc2)C3)CC1` [Example 21, 3,3-Dimethyl-6-(1-methylpiperidin-4-yl)-N-phenethyl-3,4-dihydroisoquinoline-2(1H)-carboxamide], the concentration in solution in data set [1] (solubility) came to 34.2 µM (≈ 13.9 µg/mL). Further, the IC50 at acid ceramidase (hACR) was more than 1000 nM.

The compound `CC1(C)Cc2ccccc2CN1C(=O)NCCc1ccccc1` [Example 22, 3,3-Dimethyl-N-phenethyl-3,4-dihydroisoquinoline-2(1H)-carboxamide] gave a solubility in data set [1] of 5.7 µM (≈ 1.76 µg/mL). Further, the IC50 at acid ceramidase (hACR) is 200 to 1000 nM.

Take `CN1CCC(c2ccc3c(c2)CCC(C)(C)N3C(=O)NCCc2ccccc2)CC1` [Example 23, 2,2-Dimethyl-6-(1-methylpiperidin-4-yl)-N-phenethyl-3,4-dihydroquinoline-1(2H)-carboxamide]: in data set [1], the concentration in solution (solubility) came to 33.6 µM (≈ 13.6 µg/mL). The IC50 at acid ceramidase (hACR) was 200 to 1000 nM.

Take `CCCCNC(=O)N1c2cccc(C3CCN(C)CC3)c2CCC1(C)C` [Example 24, N-Butyl-2,2-dimethyl-5-(1-methylpiperidin-4-yl)-3,4-dihydroquinoline-1(2H)-carboxamide]: the solubility in data set [1] was 40.6 µM (≈ 14.5 µg/mL). In addition, the concentration for half-maximal inhibition (IC50) on acid ceramidase (hACR) lay in the range of 200 to 1000 nM.

Consider `CC1(C)CCCCN1C(=O)NCCc1ccccc1` [Example 25, 2,2-Dimethyl-N-phenethylpiperidine-1-carboxamide], for which the concentration in solution in data set [1] (solubility) came to 23.2 µM (≈ 6.04 µg/mL). On acid ceramidase (hACR), the IC50 was 200 to 1000 nM.

In turn, `CN1CCN(C2CCN(C(=O)NCCc3ccccc3)C(C)(C)C2)CC1` (stereo not drawn) [Example 26, 2,2-Dimethyl-4-(4-methylpiperazin-1-yl)-N-phenethylpiperidine-1-carboxamide] gave a solubility in data set [1] of 43.7 µM (≈ 15.7 µg/mL). In addition, the half-maximal inhibitory concentration (IC50) on acid ceramidase (hACR) is more than 1000 nM.

On to `CCCCNC(=O)N1c2ccccc2CCC1(C)C` [Example 27, N-Butyl-2,2-dimethyl-3,4-dihydroquinoline-1(2H)-carboxamide], for which the solubility in data set [1] turned out to be 16.8 µM (≈ 4.37 µg/mL). Further, on acid ceramidase (hACR), the IC50 is 200 to 1000 nM.

On to `CC1(C)CC(=O)c2ccccc2N1C(=O)NCCc1ccccc1` [Example 28, 2,2-Dimethyl-4-oxo-N-phenethyl-3,4-dihydroquinoline-1(2H)-carboxamide], for which the concentration in solution in data set [1] (solubility) was 3.1 µM (≈ 0.999 µg/mL). Also, on acid ceramidase (hACR), the IC50 was more than 1000 nM.

`CN1CCN(c2cccc3c2CCC(C)(C)N3C(=O)NCCc2ccccc2)CC1` [Example 29, 2,2-Dimethyl-5-(4-methylpiperazin-1-yl)-N-phenethyl-3,4-dihydroquinoline-1(2H)-carboxamide]: in data set [1], the solubility turned out to be 31.7 µM (≈ 12.9 µg/mL). In addition, the IC50 on acid ceramidase (hACR) is more than 1000 nM.

Take `CN1CCN(c2ccc3c(c2)CCC(C)(C)N3C(=O)NCCc2ccccc2)CC1` [Example 30, 2,2-Dimethyl-6-(4-methylpiperazin-1-yl)-N-phenethyl-3,4-dihydroquinoline-1(2H)-carboxamide]: the concentration in solution in data set [1] (solubility) was 36.4 µM (≈ 14.8 µg/mL). In addition, on acid ceramidase (hACR), the IC50 lay in the range of 200 to 1000 nM.

`CCCCNC(=O)N1CCC2(CCCCO2)CC1(C)C` (stereo not drawn) [Example 31, N-Butyl-8,8-dimethyl-1-oxa-9-azaspiro[5.5]undecane-9-carboxamide] showed a solubility in data set [1] of 32 µM (≈ 9.04 µg/mL). Moreover, the IC50 at acid ceramidase (hACR) was more than 1000 nM.

`CCCCNC(=O)N1c2cccc(N3CCN(C)CC3)c2CCC1(C)C` [Example 33, N-Butyl-2,2-dimethyl-5-(4-methylpiperazin-1-yl)-3,4-dihydroquinoline-1(2H)-carboxamide]: in data set [1], the solubility came out at 22.7 µM (≈ 8.14 µg/mL). Further, the IC50 on acid ceramidase (hACR) was 200 to 1000 nM.

For orientation: solubility means the concentration that dissolves in the medium under given conditions. A low value points to little dissolved substance. As usually defined, the IC50 is the concentration needed to halve the response being measured.
